{
  "source": "paper PMC10536189",
  "about": "(Microorganisms, 2023)",
  "system": "multidrug-resistant (MDR) Mycobacterium tuberculosis",
  "assay_type": "cell-based",
  "conditions": "Peptide 14D at 1 µg/mL; low inoculum",
  "note": "“Also recorded” adds a separate entry of the source.",
  "data": [
    {"substance": "wkivfwwrr-CONH2 [Peptide 14D]", "values": [
      {"measurement": "Effect on growth of multidrug-resistant MTB", "value": "reducing the lag time before growth starts; also recorded: increased growth"}
    ]}
  ]
}
